From patent US20070203066A1, “Compositions and methods for inhibiting cellular proliferation” (priority 2005, published 2007)
Read-outs that look alike come from different tables or passages of the source. Non-standard residues stand in square brackets, D forms with d. Primed or numbered codes have the meaning given here. No end group written: not given here. Ida = iminodiacetic acid linker, its two carboxyls bind the Lys side-chain amines of two peptides, giving a homodimer; Ida(3) = iminodiacetic acid linker, Lys side-chain amines bound to its two carboxyl groups; Ida(4) = iminodiacetic acid linker (dimerization linker bound to lysine side chain)

Legend:
HUVECs = format: cell-based
Procedure, shortened: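 HUVECs seeded at 5,000 cells/well in EBM with 2% FCS, adhered ≥12 hours, then stimulated with bFGF 10 ng/ml or VEGF 5 ng/ml plus varying peptide concentrations. After 48 hours at 37 ° C, 5% CO2, proliferation inhibition read by BrdU incorporation.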

[1] = system: bFGF-induced angiogenesis in Matrigel plugs; assay: Murine Matrigel plug angiogenesis assay; format: in vivo, C57B1/6 mice; settings: 10-12 days of treatment, hemoglobin in plugs vs +bFGF/Buffer control
Protocol: In order to assess the effect of the peptides in this invention on angiogenesis, an additional assay was used to assess antiangiogenic activity.
Briefly, Matrigel (BD Biosciences, San Jose, Calif.) is mixed with 0.5 μg/ml of bFGF. 0.5 ml of this Matrigel/bFGF mixture is then injected subcutaneously on the ventral abdominal surface at the level of the xiphoid process of C57B1/6 mice. Matrigel plugs, injected in absence of bFGF addition, are used as negative controls. Treatment with various peptides is initiated 12-18 hours later. Animals are treated by i.p. administration of peptides, dosed at 0.2mg/d of peptide dimers, and 1.4 mg/d of Pegylated peptide dimers. After 10-12 days of treatment, animals are euthanized, and the Matrigel plugs are surgically removed, and cleaned of mouse tissue, fascia, and fat. […] After centrifugation, supernatant for each plug is assayed for the presence of Hemoglobin using a Serum Hemoglobin analysis kit (Sigma Diagnostics, St. Louis, Mo.). Angiogenesis is defined as the fold increase of hemoglobin in the buffer control treated mouse Matrigel plugs, above the amount of hemoglobin in negative (−bFGF) control Matrigel plugs. For experimental peptide treated animals, the percent inhibition is defined as the inhibition seen when comparing positive control plugs (+bFGF/ Buffer treatment) with peptide treated plugs (+bFGF/ Peptide treatment).

[2] = HUVEC proliferation, bFGF at 10 ng/ml or VEGF at 5 ng/ml, 48 hours, BrdU incorporation, read-out: IC50 on HUVECs
[3] = Pegylated peptide dimers, i.p. 1.4 mg/d

Molecule | IC50 (HUVECs; [2]) | also measured
375 (Ac-RRRRRQRVRIIFK-NH2; not fully specified (residue 13); also: homodimer via Ida-PEG 30 kDa linker on Lys13 side chain) [compound 375] | < 10 µM | Matrigel Model % Inhibition [1, 3]: 46.0%
228 (Ac-ARRRRQRVAIYFK; also: homodimer via Ida linker on side chain of Lys13) [compound 228] | < 10 µM | Matrigel Model % Inhibition ([1]; peptide dimers, i.p. 0.2mg/d): 55.0%
376 (Ac-ARRRRQRVAIYFK-NH2; not fully specified (residue 13); also: homodimer via Ida-PEG 30 kDa linker on Lys13 side chain) [compound 376] | < 10 µM | Matrigel Model % Inhibition [1, 3]: 42.0%
331 (Ac-ARRRRQRVAIYFK-NH2; not fully specified (residue 13); also: homodimer via Lys13 side chain, GP3 linker) [compound 331] | < 10 µM | Matrigel Model % Inhibition ([1]; peptide dimers, i.p. 0.2mg/d): 44.0%
167 (Ac-RRRRRQRVRIIFK; not fully specified (C-terminus); also: homodimer via Ida linker on Lys13 side chains) [compound 167] | < 10 µM | Matrigel Model % Inhibition ([1]; peptide dimers, i.p. 0.2mg/d): 42.0%
279 (Ac-RRRRRQRVRIYFK-NH2; not fully specified (residue 13); also: homodimer via Ida linker on Lys13 side chain) [compound 279] | < 10 µM | Matrigel Model % Inhibition ([1]; peptide dimers, i.p. 0.2mg/d): 56.0%
315 (Ac-ARRRRQAVAIYFK(Ida)-NH2; also: homodimer via Ida linker on Lys13 side chain) [compound 315] | < 10 µM | Matrigel Model % Inhibition ([1]; peptide dimers, i.p. 0.2mg/d): 52.0%
381 (Ac-ARRRRQAVAIYFK-NH2; not fully specified (residue 13); also: homodimer via Ida-PEG 30 kDa linker on Lys13 side chain) [compound 381] | < 10 µM | Matrigel Model % Inhibition [1, 3]: 51.0%
RKKQRVKIIFV [compound 89] | > 30 µM | –
359 (Ac-RRRHHQHVRIYFK(Ida(3))-NH2; also: homodimer via Ida linker on Lys13 side chain, Boc on Ida amine) [compound 359] | < 10 µM | –
208 (Ac-RRRARQRVAIIF; also: dimer: Phe C-termini joined via Lys linker) [compound 208] | < 10 µM | –
TKRKRKKQRVKIIFV [compound 86] | 10 to 30 µM | –
KTKRKRKKQRYEEIFVQNM [compound 30] | > 30 µM | –
CC[C@H](C)[C@H](NC(=O)[C@H](CCCNC(=N)N)NC(=O)[C@@H](NC(=O)[C@H](CCCNC(=N)N)NC(=O)[C@H](CCC(N)=O)NC(=O)[C@H](CCCNC(=N)N)NC(=O)[C@H](CCCNC(=N)N)NC(=O)[C@H](CCCNC(=N)N)NC(=O)[C@H](CCCNC(=N)N)NC(=O)[C@H](CCCNC(=N)N)NC(C)=O)C(C)C)C(=O)N[C@@H](Cc1ccc(O)cc1)C(=O)N[C@@H](Cc1ccccc1)C(=O)N[C@@H](CCCCNC(=O)CN(CC(=O)NCCCC[C@H](NC(=O)[C@H](Cc1ccccc1)NC(=O)[C@H](Cc1ccc(O)cc1)NC(=O)[C@@H](NC(=O)[C@H](CCCNC(=N)N)NC(=O)[C@@H](NC(=O)[C@H](CCCNC(=N)N)NC(=O)[C@H](CCC(N)=O)NC(=O)[C@H](CCCNC(=N)N)NC(=O)[C@H](CCCNC(=N)N)NC(=O)[C@H](CCCNC(=N)N)NC(=O)[C@H](CCCNC(=N)N)NC(=O)[C@H](CCCNC(=N)N)NC(C)=O)C(C)C)[C@@H](C)CC)C(N)=O)C(=O)CCNC(=O)OC(C)(C)C)C(N)=O [Peptide 279] | – | IC50 (HUVECs; 48 h): < 10 µM
249 (Ac-RRRRRQAVAIEFK; not fully specified (C-terminus); also: homodimer: side chain of Lys13 bound to an Ida linker) [compound 249] | 10 to 30 µM | –
245 (Ac-RRRHRQRVHIIF; also: homodimer: C-termini of two chains bound to the two amines of a Lys linker) [compound 245] | 10 to 30 µM | –
251 (Ac-RRRRRQAVAIPFK; not fully specified (C-terminus); also: homodimer: side chain of Lys13 bound to an Ida linker) [compound 251] | > 30 µM | –
KTKRKRKKQRVKIIFVQAM [compound 106] | < 10 µM | –
324 (Ac-RRHRRQHVRIYFK(Ida)-NH2; also: homodimer via Ida linker on Lys13 side chain) [compound 324] | < 10 µM | –
KAKRKRKKQRVKIIFVQNM [compound 122] | < 10 µM | –

Molecule | IC50 (HUVECs; [2]) | also measured
268 (Ac-ARRRRQRVAIPFK-NH2; not fully specified (residue 13); also: homodimer: side chain of Lys13 bound to an Ida linker) [compound 268] | > 30 µM | –
424 (Ac-ARRRRQWVAIYFK; not fully specified (residue 13, C-terminus); also: homodimer of residues 1-13 via Ida linker on K13 side chain) [compound 424] | < 10 µM | –
433 (Ac-RRRREQAVAIYFK(Ida(4)); not fully specified (C-terminus); also: homodimer via Ida linker at K13) [compound 433] | 10 to 30 µM | –
449 (Ac-RRRRRAAAAAAAK(Ida(4)); not fully specified (C-terminus); also: homodimer via Ida linker at K13) [compound 449] | > 30 µM | –
221 (Ac-RRRRAQAVAIIF; also: dimer: Phe C-termini joined via Lys linker) [compound 221] | < 10 µM | –
KTKRKRKKQAVKIIFVQNM [compound 114] | > 30 µM | –
319 (Ac-ARRRRQHVHIYFK(Ida)-NH2; also: homodimer via Ida linker on Lys13 side chain) [compound 319] | < 10 µM | –
481 (Ac-PRRRYQAVAIYFK; not fully specified (residue 13, C-terminus); also: homodimer via Ida linker on Lys13 side chain) [compound 481] | 10 to 30 µM | –
176 (Ac-RRRARQRVRIIF; also: homodimer via C-terminal Lys linker) [compound 176] | < 10 µM | –
347 (Ac-ARRRRQRVAIYTK-NH2; not fully specified (residue 13); also: homodimer of residues 1-13 via Ida linker on Lys13 side chain) [compound 347] | > 30 µM | –
252 (Ac-ARRRRQRVAIIF[dK]; not fully specified (C-terminus); also: homodimer: side chain of Lys13 bound to an Ida linker) [compound 252] | < 10 µM | –
KTKRKRKKQRVKIIAVQNM [compound 109] | > 30 µM | –
KTKRKRKKQAYEEIFVQNM [compound 29] | > 30 µM | –
RKKQRVKIIF [compound 84] | > 30 µM | –
197 (Ac-RAARRQRVRIIF; also: dimer: C-terminal Phe bound to an amino group of a Lys linker, 2 chains per Lys) [compound 197] | < 10 µM | –
274 (Ac-RARRRQAVAIWFK-NH2; not fully specified (residue 13); also: homodimer via Ida linker on Lys13 side chain) [compound 274] | < 10 µM | –
240 (Ac-RRHHRQRVRIIF; also: dimer via C-terminal Phe to Lys linker) [compound 240] | < 10 µM | –
267 (Ac-RRRRRQAVAIYFK-NH2; not fully specified (residue 13); also: homodimer via Ida linker on Lys13 side chain) [compound 267] | < 10 µM | Matrigel Model % Inhibition ([1]; peptide dimers, i.p. 0.2mg/d): 36.0%
512 (Ac-ARRRRGRVAIYFK; not fully specified (C-terminus); also: homodimer via Ida linker at Lys13 side chain) [compound 512] | < 10 µM | –
233 (XRRRRQHVRIIF; Xaa = Acylated Histidine; Dimeric peptide wherein the C terminus of Phe in position 12 of one peptide chain is covalently bound to one of the amino groups of a Lysine linker and Phe of the remaining peptide chain is covalently bound to the other amino group of the Lysine linker.) [compound 233] | < 10 µM | –
